Here are results for 59 compounds from patent US20250140406A1, “CLASSIFYING TUMORS AND PREDICTING RESPONSIVENESS” (Oncocyte Corporation, priority 2022, published 2025).

Assay [1] concerns cancer cell lines, DetermaIO classes. In words: Association of PRISM compound sensitivity with DetermaIO (DTIO) cell line classes. In kind it is cell-based. The note with it: association of compound sensitivity with DetermaIO classes; for DTIO Corr test: test data set; for DTIO Corr train: training data set.
Assay [2] concerns cancer cell lines classified IM, MSL, M. The assay is described as follows: PRISM screen compound sensitivity correlated with IM, MSL and M subtype of cell lines (101 gene signature). It counts as cell-based. The note with it: for TNBCType test: test set.
Where [3] appears, read: subtype (IM, MSL or M) with which PRISM compound sensitivity is negatively correlated, training cell set, 101 gene signature.
Setting [4] is: subtype (IM, MSL or M) with which compound sensitivity is negatively correlated, training cell set (371 cell lines), 101 gene signature.
Setting [5] is: subtype (IM, MSL or M) assigned to the compound by negative correlation of PRISM sensitivity with subtype, training cell set (371 cell lines), 101 gene signature.
Where [6] appears, read: subtype (IM, MSL, M) with which compound sensitivity correlates.

Regarding `N=C(N)c1ccc(OCCCCCOc2ccc(C(=N)N)cc2)cc1` [K13183738], in assay [1], the “DTIO Corr test” value was found to be 0.14 and the “DTIO Corr train” value is 0.2157.

For the compound `CNC(=O)c1ccccc1Sc1ccc2c(/C=C/c3ccccn3)n[nH]c2c1` [K29905972], in assay [1], the “DTIO Corr test” value stood at 0.004812 and the “DTIO Corr train” value stood at 0.0816.

As to `Cc1occc(=O)c1[O-].Cc1occc(=O)c1[O-].[O]=[V+2]` [K16180792], in assay [1], the “DTIO Corr test” value came out at 0.09031 and the “DTIO Corr train” value was found to be 0.1485. Regarding `O=Nc1ccc(O)c2ncccc12` [K13169950], in assay [1], the “DTIO Corr test” value is given as −0.00012 and the “DTIO Corr train” value is 0.09356. On to `COC(=O)N[C@@H](C)CNc1nccc(-c2cn(C(C)C)nc2-c2cc(Cl)cc(NS(C)(=O)=O)c2F)n1` [A56085258], for which, in assay [1], the “DTIO Corr test” value was determined as 0.1442 and the “DTIO Corr train” value was found to be 0.09535.

In the case of `Cc1cc(CN2CCN(c3c(Br)cnc4nc(-c5ccc(N6CCN(C)CC6)cc5)[nH]c34)CC2)no1` [K03289018], in assay [1], the “DTIO Corr test” value is −0.1396 and the “DTIO Corr train” value is given as −0.02552. With `COc1cc2nc(N3CCCN(C)CC3)nc(NC3CCN(Cc4ccccc4)CC3)c2cc1OC` [K26818574], in assay [1], the “DTIO Corr test” value came to 0.2463 and the “DTIO Corr train” value turned out to be 0.08377. On to `CC(C)(C)c1nc(-c2cccc(NS(=O)(=O)c3c(F)cccc3F)c2F)c(-c2ccnc(N)n2)s1` [K09951645], for which, in assay [1], the “DTIO Corr test” value came out at 0.1439 and the “DTIO Corr train” value is listed as 0.04313. For the compound `Cc1nccn1CC1CCc2c(c3ccccc3n2C)C1=O` (centres unmarked) [A19736161], in assay [1], the “DTIO Corr test” value is −0.1124 and the “DTIO Corr train” value was −0.07634. As to `CS(=O)(=O)CCNCc1ccc(-c2ccc3ncnc(Nc4ccc(OCc5cccc(F)c5)c(Cl)c4)c3c2)o1` [K19687926], in assay [1], the “DTIO Corr test” value is recorded as −0.0302 and the “DTIO Corr train” value is −0.08369.

With `CC[C@@]1(O)C(=O)OCc2c1cc1n(c2=O)Cc2cc3c([N+](=O)[O-])cccc3nc2-1` [K79821389], in assay [1], the “DTIO Corr test” value is −0.06417 and the “DTIO Corr train” value is recorded as −0.1178. `N#Cc1c(Oc2ccc(F)c(NC(=O)Cc3cccc(C(F)(F)F)c3)c2)ccc2nc(NC(=O)C3CC3)sc12` [K31866293]: in assay [1], the “DTIO Corr test” value was determined as 0.2089 and the “DTIO Corr train” value is recorded as 0.08489. With `Cc1ccc(NC(=O)c2ccc(CN3CC[C@H](N(C)C)C3)c(C(F)(F)F)c2)cc1Nc1nccc(-c2cncnc2)n1` [A75975749], in assay [1], the “DTIO Corr test” value stood at 0.1658 and the “DTIO Corr train” value is reported as 0.1191. Regarding `O=c1cc(-c2ccccc2)oc2cc(O)c(O)c(O)c12` [K72327355], in assay [1], the “DTIO Corr test” value is −0.04244 and the “DTIO Corr train” value is recorded as −0.1442. In the case of `Cc1cc(C2CCCCC2)n(O)c(=O)c1` [K13044802], in assay [1], the “DTIO Corr test” value is listed as −0.06749 and the “DTIO Corr train” value is on record as −0.1574. Consider `Cc1ccc(NC(=O)c2cccc(C(C)(C)C#N)c2)cc1Nc1ccc2ncn(C)c(=O)c2c1` [K05804044], for which, in assay [1], the “DTIO Corr test” value is reported as 0.3247 and the “DTIO Corr train” value came to 0.1908. Consider `C=C1/C(=C\C=C2/CCC[C@]3(C)[C@@H]([C@H](C)OCCC(C)(C)O)CC[C@@H]23)C[C@@H](O)C[C@@H]1O` [K81332461], for which, in assay [1], the “DTIO Corr test” value was −0.00506 and the “DTIO Corr train” value is reported as −0.07504. `O=C1[C@H](Cc2ccc(O)cc2)N2C(=O)CCN(C(=O)NCc3ccccc3)[C@H]2CN1Cc1cccc2ccccc12` [K94455792]: in assay [1], the “DTIO Corr test” value worked out at 0.1635 and the “DTIO Corr train” value was 0.1783.

As to `CC(C)N(CCCCOCC(=O)NS(C)(=O)=O)c1cnc(-c2ccccc2)c(-c2ccccc2)n1` [selexipag], the TNBCType train result in assay [2] (setting [3]) is “MSL”. On to `CC(c1cc2ccccc2s1)N(O)C(N)=O` (centres unmarked) [zileuton], for which, in assay [2] (setting [4]), the TNBCType train result is reported as “MSL”. Regarding `OCCn1cc(-c2ccc3c(c2)CC/C3=N\O)c(-c2ccncc2)n1` [K67578145], in assay [1], the “DTIO Corr test” value worked out at 0.1581 and the “DTIO Corr train” value is recorded as 0.1101. Turning to `CC1=C(C(=O)Nc2cc3cn[nH]c3cc2F)C(c2ccc(C(F)(F)F)cc2)CC(=O)N1` (centres unmarked) [GSK429286A], in assay [2] (setting [4]), the TNBCType train entry is “MSL”. Regarding `Oc1c(Cl)cc(Cl)c2cccnc12` [chloroxine], in assay [2] (setting [4]), the TNBCType train entry is recorded as “MSL”. Take `CC(C)(C)c1ccc(S(=O)(=O)Nc2ccc(Cl)cc2C(=O)c2cc[n+]([O-])cc2)cc1` [vercirnon]: in assay [2] (setting [3]), the TNBCType train entry is “MSL”. Same read-out and setting: with `CC(=O)OCC1=C(C(=O)O)N2C(=O)[C@@H](NC(=O)Cc3cccs3)[C@H]2SC1` [cephalothin] the entry was “MSL”; with `N#CCC(=O)NN` [cyacetacide], “MSL”; with `COC(=O)c1ccc2c(c1)NC(=O)/C2=C(\Nc1ccc(N(C)C(=O)CN2CCN(C)CC2)cc1)c1ccccc1` [nintedanib], “MSL”. For `CC1(C)S[C@@H]2[C@H](NC(=O)[C@H](N)c3ccccc3)C(=O)N2[C@H]1C(=O)O` [ampicillin], the TNBCType train result in assay [2] (setting [5]) was “MSL”. As to `CCCSc1nc(N[C@@H]2C[C@H]2c2ccc(F)c(F)c2)c2nnn([C@@H]3C[C@H](OCCO)[C@@H](O)[C@H]3O)c2n1` [ticagrelor], the TNBCType train result in assay [2] (setting [3]) is on record as “MSL”. `CCCCN1CCC(CNC(=O)c2c3n(c4ccccc24)CCCO3)CC1` [piboserod]: in assay [2] (setting [4]), the TNBCType train entry is given as “MSL”. As for `CC(C)NCC(O)COc1cccc2[nH]c3ccccc3c12` (centres unmarked) [carazolol], the TNBCType train entry in assay [2] (setting [4]) was “MSL”. As for `CCCOc1ccc(S(=O)(=O)N2CCN(CCO)CC2)cc1-c1nc2c(CCC)cn(CC)c2c(=O)[nH]1` [mirodenafil], in assay [2] (setting [5]), the TNBCType train entry is given as “MSL”. For the compound `CC(C(=O)O)c1cccc(C(=O)c2ccccc2)c1` (centres unmarked) [ketoprofen], the TNBCType train entry in assay [2] (setting [4]) is reported as “MSL”. `O=C(N[C@H]1CN2CCC1CC2)c1cnc2ccsc2c1O` [pumosetrag]: in assay [2] (setting [3]), the TNBCType train entry is recorded as “MSL”. As for `CCn1nc(C)c2c1C(c1ccccc1)=NCC(=O)N2` [ripazepam], the TNBCType train result in assay [2] (setting [5]) is on record as “MSL”.

For `CC(C)(CO)CCCCCCC(C)(C)CO` [gemcadiol], in assay [2] (setting [3]), the TNBCType train entry is “MSL”. As for `O=C(O)CCc1ccc(NCc2cccc(Oc3ccccc3)c2)cc1` [GW-9508], in assay [2] (setting [5]), the TNBCType train entry is reported as “MSL”. As to `CC(CC(C(N)=O)(c1ccccc1)c1ccccc1)N(C)C` (centres unmarked) [aminopentamide], the TNBCType train entry in assay [2] (setting [4]) is reported as “MSL”.

On to `N=C(N)N1CCc2ccccc2C1` [debrisoquin], for which the TNBCType train entry in assay [2] (setting [5]) is recorded as “MSL”. On to `O=C1c2cccc(O)c2C(=O)c2c(O)cccc21` [dantron], for which, in assay [2] (setting [4]), the TNBCType train result is recorded as “MSL”. The same measure, in the same setting: as for `O=c1[nH]cnc2nc[nH]c12` [hypoxanthine], the entry is “MSL”; as for `COc1ccc2[nH]c([S+]([O-])Cc3ncc(C)c(OC)c3C)nc2n1` (centres unmarked) [tenatoprazole], “MSL”. As for `CC1=C(CC(=O)O)c2cc(F)ccc2/C1=C\c1ccc(S(C)(=O)=O)cc1` [exisulind], in assay [2] (setting [3]), the TNBCType train result was “MSL”. Take `COc1c2occc2c(OC)c2c(=O)cc(C)oc12` [khellin]: the TNBCType train entry in assay [2] (setting [5]) is recorded as “MSL”. On to `Cc1ccc2c(=O)c3cccc(CC(=O)O)c3oc2c1C` [ASA-404], for which the TNBCType train result in assay [2] (setting [3]) is reported as “MSL”.

For the compound `O=C(O)C[C@H](O)C[C@H](O)/C=C/c1c(C2CC2)nc2ccccc2c1-c1ccc(F)cc1` [pitavastatin], the TNBCType train entry in assay [2] (setting [5]) was “MSL”. `O=P(O)(O)CP(=O)(O)O` [medronic-acid]: in assay [2] (subtype (IM, MSL or M) the PRISM compound sensitivity is associated with, training cell set (371 cell lines), 101 gene signature), the TNBCType train entry is given as “MSL”. Take `CC(C)(Oc1ccc(Cl)cc1)C(=O)O` [clofibric-acid]: the TNBCType train result in assay [2] (setting [4]) is on record as “MSL”.

Regarding `CC[C@]1(O)C[C@@H]2CN(CCc3c([nH]c4ccccc34)[C@@](C(=O)OC)(c3cc4c(cc3OC)N(C)[C@H]3[C@@](O)(C(N)=O)[C@H](O)[C@]5(CC)C=CCN6CC[C@]43[C@@H]65)C2)C1` [vindesine], in assay [2] (setting [5]), the TNBCType train result is given as “MSL”.

`CCOC(=O)OC(C)OC(=O)[C@@H]1N2C(=O)[C@@H](NC(=O)[C@H](N)c3ccccc3)[C@H]2SC1(C)C` (some centres unmarked) [bacampicillin]: the TNBCType train result in assay [2] (setting [4]) is on record as “MSL”. On to `CC[C@H](CC[C@@H](C)[C@H]1CC[C@H]2[C@@H]3CC=C4C[C@@H](O[C@@H]5O[C@H](CO)[C@@H](O)[C@H](O)[C@H]5O)CC[C@]4(C)[C@H]3CC[C@]12C)C(C)C` [daucosterol], for which the TNBCType train entry in assay [2] (setting [4]) is “MSL”. As to `COc1cc([C@@H]2c3cc4c(cc3[C@@H](O[C@@H]3O[C@@H]5CO[C@@H](C)O[C@H]5[C@H](O)[C@H]3O)[C@H]3COC(=O)[C@H]23)OCO4)cc(OC)c1OP(=O)(O)O` [etoposide-phosphate], the TNBCType train result in assay [2] (setting [5]) was “MSL”.

For the compound `Cc1ccc2c(-c3ccccc3)nc(=O)n(C(C)C)c2c1` [proquazone], in assay [2] (setting [3]), the TNBCType train entry is given as “MSL”. For the compound `CC[C@]1(O)C[C@@H]2CN(CCc3c([nH]c4ccccc34)[C@@](C(=O)OC)(c3cc4c(cc3OC)N(C)[C@H]3[C@@](O)(C(=O)OC)[C@H](OC(C)=O)[C@]5(CC)C=CCN6CC[C@]43[C@@H]65)C2)C1` [vinblastine], the TNBCType train entry in assay [2] (setting [4]) is listed as “MSL”.

Take `O=C1NC(c2ccccc2)(c2ccccc2)C(=O)N1COP(=O)(O)O` [fosphenytoin]: the TNBCType train entry in assay [2] (setting [3]) is “MSL”. Regarding `Cc1cc(Nc2cc(N3CCN(C)CC3)nc(/C=C/c3ccccc3)n2)n[nH]1` [ENMD-2076], in assay [2] (setting [5]), the TNBCType train result was “MSL”.

With `C=C[C@](C)(O)CC[C@@H]1[C@@]2(C)CCCC(C)(C)[C@@H]2CC[C@@]1(C)O` [sclareol], in assay [2] (setting [4]), the TNBCType train result is “MSL”. As to `O=C(Nc1ccccc1F)N[C@H]1N=C(c2ccccc2)c2ccccc2NC1=O` [RSV604], the TNBCType train result in assay [2] (setting [3]) is on record as “MSL”; in assay [2] (subtype (IM, MSL, M) with which compound sensitivity correlates, training set), “MSL”. Also, the TNBCType test entry in assay [2] (setting [6]) was “MSL”. Consider `O=c1[nH]c2ccccc2n1C1CCN(CCOc2ccccc2)CC1` [oxiperomide], for which, in assay [2] (setting [6]), the TNBCType test result is on record as “MSL/M”.
